One assay deals with Streptococcus pneumoniae. The assay is described as follows: Antibacterial activity against Streptococcus pneumoniae assessed as inhibition of bacterial growth incubated for 18 to 20 hrs by microbroth dilution method. It counts as functional. The following applies: time 18-20 hrs. On the technique in general: Dilution methods test growth across graded concentrations, often in twofold steps.

The subject of assay [1] is Staphylococcus epidermidis. Description: Antibacterial activity against Staphylococcus epidermidis assessed as inhibition of bacterial growth incubated for 18 to 20 hrs by microbroth dilution method. The class given is functional. The following applies: time 18-20 hrs.
In another assay the test system is Aspergillus flavus. Description: Antifungal activity against Aspergillus flavus assessed as inhibition of fungal growth incubated for 72 hrs by agar dilution method. The class given is functional. For orientation: In agar dilution the substance is mixed into plates at graded concentrations.
The test system of a further assay is Pseudomonas aeruginosa. The assay is described as follows: Antibacterial activity against Pseudomonas aeruginosa assessed as inhibition of bacterial growth incubated for 18 to 20 hrs by microbroth dilution method. It counts as functional. The following applies: time 18-20 hrs.
In another assay the test system is Klebsiella pneumoniae. The assay is described as follows: Antibacterial activity against Klebsiella pneumoniae assessed as inhibition of bacterial growth incubated for 18 to 20 hrs by microbroth dilution method. The class given is functional. The settings on record: time 18-20 hrs.
The next assay relates to Staphylococcus aureus. Description: Antibacterial activity against Staphylococcus aureus assessed as inhibition of bacterial growth incubated for 18 to 20 hrs by microbroth dilution method. The class given is functional. The settings on record: time 18-20 hrs.
The next assay deals with Saccharomyces cerevisiae. Description: Antifungal activity against Saccharomyces cerevisiae assessed as inhibition of fungal growth incubated for 72 hrs by agar dilution method. The class given is functional.
Another assay relates to Aspergillus niger. The assay is described as follows: Antifungal activity against Aspergillus niger assessed as inhibition of fungal growth incubated for 72 hrs by agar dilution method. The class given is functional.
The subject of the next assay is Salmonella typhimurium. The assay is described as follows: Antibacterial activity against Salmonella typhimurium assessed as inhibition of bacterial growth incubated for 18 to 20 hrs by microbroth dilution method. It counts as functional, Salmonella enterica subsp. enterica serovar Typhimurium. The following applies: Salmonella enterica; time 18-20 hrs.
The next assay has as its system Clostridioides difficile. The assay is described as follows: Antibacterial activity against Clostridium difficile assessed as inhibition of bacterial growth incubated for 18 to 20 hrs by microbroth dilution method. The following applies: time 18-20 hrs. The class given is functional.
For the next assay, the system named is Fusarium oxysporum. The assay is described as follows: Antifungal activity against Fusarium oxysporum assessed as inhibition of fungal growth incubated for 72 hrs by agar dilution method. The class given is functional.
For a further assay, the system named is Bacillus subtilis. The assay is described as follows: Antibacterial activity against Bacillus subtilis assessed as inhibition of bacterial growth incubated for 18 to 20 hrs by microbroth dilution method. The settings on record: time 18-20 hrs. It counts as functional.
In the next assay the test system is Escherichia coli. The assay is described as follows: Antibacterial activity against Escherichia coli assessed as inhibition of bacterial growth incubated for 18 to 20 hrs by microbroth dilution method. It counts as functional. The settings on record: time 18-20 hrs.
For the next assay, the system named is Candida albicans. The assay is described as follows: Antifungal activity against Candida albicans assessed as inhibition of fungal growth incubated for 72 hrs by agar dilution method. It counts as functional.

Here are results for seven compounds from ChEMBL document CHEMBL5356994, “Synthesis, biological and molecular modelling for 1,3,4-thiadiazole sulfonyl thioureas: bacterial and fungal activity” (RSC Med Chem, 2023).

Converted amounts (≈) assume the structure as drawn.

Turning to `CCCc1nnc(NC(=S)NS(=O)(=O)c2ccc(C)cc2)s1`, the MIC (usually the lowest concentration found to suppress growth) in the assay with Streptococcus pneumoniae came to 1.56 µg/mL (≈ 4.38 µM); in assay [1], 25 µg/mL (≈ 70.1 µM); in the assay with Aspergillus flavus, 1.56 µg/mL (≈ 4.38 µM); in the assay on Pseudomonas aeruginosa, 100 µg/mL (≈ 281 µM); in the assay with Klebsiella pneumoniae it was 25 µg/mL (≈ 70.1 µM); in the assay on Staphylococcus aureus, 50 µg/mL (≈ 140 µM). For the same compound, the MIC in the assay with Saccharomyces cerevisiae stood at 1.56 µg/mL (≈ 4.38 µM); with Aspergillus niger it was 12.5 µg/mL (≈ 35.1 µM); in the assay with Salmonella typhimurium it was 25 µg/mL (≈ 70.1 µM); with Clostridioides difficile, 25 µg/mL (≈ 70.1 µM); in the assay with Fusarium oxysporum, 200 µg/mL (≈ 561 µM); in the assay on Bacillus subtilis, 3.12 µg/mL (≈ 8.77 µM). Besides, the MIC was found to be 12.5 µg/mL (≈ 35.1 µM) in the assay on Escherichia coli and 3.12 µg/mL (≈ 8.77 µM) with Candida albicans.

Turning to `CCCCc1nnc(NC(=S)NS(=O)(=O)c2ccc(C)cc2)s1`, the MIC (in the assay on Streptococcus pneumoniae; in assay [1]; in the assay with Aspergillus flavus; with Pseudomonas aeruginosa; in the assay with Klebsiella pneumoniae; in the assay on Staphylococcus aureus) was 400 µg/mL (≈ 1080 µM) throughout. The MIC in the assay with Saccharomyces cerevisiae, in the assay with Aspergillus niger, with Salmonella typhimurium, in the assay on Clostridioides difficile, in the assay with Fusarium oxysporum and in the assay with Bacillus subtilis was 400 µg/mL (≈ 1080 µM) in each case. Moreover, the MIC in the assay on Escherichia coli and with Candida albicans was 400 µg/mL (≈ 1080 µM) each time.

As for `Cc1ccc(S(=O)(=O)NC(=S)Nc2nnc(C)s2)cc1`, the MIC in the assay with Streptococcus pneumoniae came to 12.5 µg/mL (≈ 38.1 µM); in assay [1] it was 100 µg/mL (≈ 304 µM); with Aspergillus flavus, 25 µg/mL (≈ 76.1 µM); with Pseudomonas aeruginosa it was 1.56 µg/mL (≈ 4.75 µM); in the assay with Klebsiella pneumoniae, 6.25 µg/mL (≈ 19 µM); with Staphylococcus aureus it was 25 µg/mL (≈ 76.1 µM). Also, the MIC came to 6.25 µg/mL (≈ 19 µM) in the assay on Saccharomyces cerevisiae; 50 µg/mL (≈ 152 µM) in the assay on Aspergillus niger; 12.5 µg/mL (≈ 38.1 µM) in the assay with Salmonella typhimurium; 6.25 µg/mL (≈ 19 µM) in the assay with Clostridioides difficile; 25 µg/mL (≈ 76.1 µM) with Fusarium oxysporum; 6.25 µg/mL (≈ 19 µM) in the assay with Bacillus subtilis. The MIC was determined as 50 µg/mL (≈ 152 µM) with Escherichia coli and 0.78 µg/mL (≈ 2.37 µM) in the assay with Candida albicans.

As for `Cc1ccc(S(=O)(=O)NC(=S)Nc2nnc(C(C)C)s2)cc1`, the MIC with Streptococcus pneumoniae worked out at 3.12 µg/mL (≈ 8.77 µM); in assay [1] it was 1.56 µg/mL (≈ 4.38 µM); in the assay on Aspergillus flavus it was 200 µg/mL (≈ 561 µM); with Pseudomonas aeruginosa, 12.5 µg/mL (≈ 35.1 µM); with Klebsiella pneumoniae, 3.12 µg/mL (≈ 8.77 µM); with Staphylococcus aureus it was 12.5 µg/mL (≈ 35.1 µM). Further, the minimum inhibitory concentration (MIC) came to 100 µg/mL (≈ 281 µM) in the assay with Saccharomyces cerevisiae; 6.25 µg/mL (≈ 17.5 µM) with Aspergillus niger; 6.25 µg/mL (≈ 17.5 µM) in the assay with Salmonella typhimurium; 50 µg/mL (≈ 140 µM) in the assay with Clostridioides difficile; 6.25 µg/mL (≈ 17.5 µM) in the assay with Fusarium oxysporum; 1.56 µg/mL (≈ 4.38 µM) in the assay on Bacillus subtilis. In addition, the MIC with Escherichia coli worked out at 3.12 µg/mL (≈ 8.77 µM); in the assay with Candida albicans, 6.25 µg/mL (≈ 17.5 µM).

On to `O=C(O)c1cn(C2CC2)c2cc(N3CCNCC3)c(F)cc2c1=O` [CIPROFLOXACIN], for which the MIC in assay [1] is 3.12 µg/mL (≈ 9.43 µM); with Pseudomonas aeruginosa it was 1.56 µg/mL (≈ 4.71 µM); with Klebsiella pneumoniae, 1.56 µg/mL (≈ 4.71 µM); in the assay on Staphylococcus aureus, 3.12 µg/mL (≈ 9.43 µM); in the assay on Salmonella typhimurium it was 1.56 µg/mL (≈ 4.71 µM); in the assay with Bacillus subtilis, 3.12 µg/mL (≈ 9.43 µM).

As for `Clc1ccc(COC(Cn2ccnc2)c2ccc(Cl)cc2Cl)c(Cl)c1` (configuration not stated) [MICONAZOLE], the MIC in the assay with Aspergillus flavus came out at 1.56 µg/mL (≈ 3.75 µM); with Saccharomyces cerevisiae, 3.12 µg/mL (≈ 7.51 µM); in the assay with Aspergillus niger, 1.56 µg/mL (≈ 3.75 µM); in the assay on Fusarium oxysporum it was 3.12 µg/mL (≈ 7.51 µM); with Candida albicans, 3.12 µg/mL (≈ 7.51 µM).

For `CN[C@H](CC(C)C)C(=O)N[C@H]1C(=O)N[C@@H](CC(N)=O)C(=O)N[C@H]2C(=O)N[C@H]3C(=O)N[C@H](C(=O)N[C@H](C(=O)O)c4cc(O)cc(O)c4-c4cc3ccc4O)[C@H](O)c3ccc(c(Cl)c3)Oc3cc2cc(c3O[C@@H]2O[C@H](CO)[C@@H](O)[C@H](O)[C@H]2O[C@H]2C[C@](C)(N)[C@H](O)[C@H](C)O2)Oc2ccc(cc2Cl)[C@H]1O` [VANCOMYCIN], the MIC in the assay on Streptococcus pneumoniae worked out at 1.56 µg/mL (≈ 1.08 µM); in assay [1], 0.78 µg/mL (≈ 0.538 µM); in the assay on Staphylococcus aureus it was 1.56 µg/mL (≈ 1.08 µM); in the assay with Clostridioides difficile it was 1.56 µg/mL (≈ 1.08 µM); in the assay with Bacillus subtilis, 1.56 µg/mL (≈ 1.08 µM).
